Test results: PubChem BioAssay (NCI)
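Growth conditions: 96-well plates. Treatment: test compound, 48 hours, 5 concentrations. Analysis: linear interpolation between bracketing concentrations; unreached endpoints set to highest concentration. Abbreviation: GI50, concentration required for 50% inhibition of growth. TGI denotes the concentration required for complete inhibition of growth.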

Tests used:
Assay in all cases: NCI-60 cell line screen, 48 h
[1] = tested on: 786-0 renal
[2] = tested on: A498 renal
[3] = tested on: A549 NSCLC
[4] = tested on: ACHN renal
[5] = tested on: BT-549 breast
[6] = tested on: CCRF-CEM leukemia
[7] = tested on: COLO 205 colon
[8] = tested on: DU-145 prostate
[9] = tested on: EKVX NSCLC
[10] = tested on: HCC-2998 colon
[11] = tested on: HCT-116 colon
[12] = tested on: HCT-15 colon
[13] = tested on: HL-60(TB) leukemia
[14] = tested on: HOP-62 NSCLC
[15] = tested on: HOP-92 NSCLC
[16] = tested on: HS 578T breast
[17] = tested on: HT29 colon
[18] = tested on: IGROV1 ovarian
[19] = tested on: K-562 leukemia
[20] = tested on: KM12 colon
[21] = tested on: LOX IMVI melanoma
[22] = tested on: M14 melanoma
[23] = tested on: MALME-3M melanoma
[24] = tested on: MCF7 breast
[25] = tested on: MDA-MB-231 breast
[26] = tested on: MDA-MB-435
[27] = tested on: MOLT-4 leukemia
[28] = tested on: NCI-H23 lung
[29] = tested on: NCI-H460 lung
[30] = tested on: NCI-H522 lung
[31] = tested on: NCI/ADR-RES ovarian
[32] = tested on: OVCAR-3 ovarian
[33] = tested on: OVCAR-4 ovarian
[34] = tested on: OVCAR-5 ovarian
[35] = tested on: OVCAR-8 ovarian
[36] = tested on: PC-3 prostate
[37] = tested on: RPMI-8226 leukemia
[38] = tested on: RXF 393 renal
[39] = tested on: SF-268 CNS
[40] = tested on: SF-295 CNS
[41] = tested on: SF-539 CNS
[42] = tested on: SK-MEL-28 melanoma
[43] = tested on: SK-MEL-5 melanoma
[44] = tested on: SK-OV-3 ovarian
[45] = tested on: SN12C renal
[46] = tested on: SNB-19 CNS
[47] = tested on: SNB-75 CNS
[48] = tested on: SR leukemia
[49] = tested on: SW-620 colon
[50] = tested on: T-47D breast
[51] = tested on: TK-10 renal
[52] = tested on: U251 CNS
[53] = tested on: UACC-257 melanoma
[54] = tested on: UACC-62 melanoma
[55] = tested on: UO-31 renal
[56] = tested on: CAKI-1 renal
[57] = tested on: NCI-H226 lung
[58] = tested on: SK-MEL-2 melanoma

O=C(CC(C(=O)c1cccs1)c1ccsc1)c1ccsc1 (centres undefined)
TGI [1]: > 100 µM | TGI [2]: 57.9 µM | TGI [3]: > 100 µM | TGI [4]: > 100 µM | TGI [5]: > 100 µM | TGI [6]: > 100 µM | TGI [7]: 53.5 µM | TGI [8]: > 100 µM | TGI [9]: > 100 µM | TGI [10]: > 100 µM | TGI [11]: > 100 µM | TGI [12]: > 100 µM | TGI [13]: > 100 µM | TGI [14]: > 100 µM | TGI [15]: > 100 µM | TGI [16]: 71.2 µM | TGI [17]: > 100 µM | TGI [18]: > 100 µM | TGI [19]: > 100 µM | TGI [20]: > 100 µM | TGI [21]: > 100 µM | TGI [22]: 50.8 µM | TGI [23]: > 100 µM | TGI [24]: > 100 µM | TGI [25]: > 100 µM | TGI [26]: > 100 µM | TGI [27]: > 100 µM | TGI [28]: > 100 µM | TGI [29]: > 100 µM | TGI [30]: 50 µM | TGI [31]: 63.6 µM | TGI [32]: > 100 µM | TGI [33]: > 100 µM | TGI [34]: > 100 µM | TGI [35]: > 100 µM | TGI [36]: > 100 µM | TGI [37]: > 100 µM | TGI [38]: > 100 µM | TGI [39]: > 100 µM | TGI [40]: 93.3 µM | TGI [41]: 94.8 µM | TGI [42]: > 100 µM | TGI [43]: 64 µM | TGI [44]: > 100 µM | TGI [45]: > 100 µM | TGI [46]: > 100 µM | TGI [47]: > 100 µM | TGI [48]: > 100 µM | TGI [49]: > 100 µM | TGI [50]: > 100 µM | TGI [51]: > 100 µM | TGI [52]: > 100 µM | TGI [53]: > 100 µM | TGI [54]: > 100 µM | TGI [55]: > 100 µM

NCc1ccc(-n2c(-c3nonc3N)nc3cnccc32)cc1
GI50 [1]: 7.51 µM | TGI [1]: > 25 µM | GI50 [2]: 1.38 µM | TGI [2]: > 22.1 µM | GI50 [3]: 6.86 µM | TGI [3]: > 25 µM | GI50 [4]: 5.68 µM | TGI [4]: > 25 µM | GI50 [5]: 0.964 µM | TGI [5]: > 25 µM | GI50 [56]: 2.27 µM | TGI [56]: > 25 µM | GI50 [6]: 6.26 µM | TGI [6]: > 25 µM | GI50 [7]: 5.53 µM | TGI [7]: > 25 µM | GI50 [8]: 11.4 µM | TGI [8]: > 25 µM | GI50 [9]: > 25 µM | TGI [9]: > 25 µM | GI50 [10]: 23.8 µM | TGI [10]: > 25 µM | GI50 [11]: 2.69 µM | TGI [11]: > 25 µM | GI50 [12]: 6.85 µM | TGI [12]: > 25 µM | GI50 [13]: > 11.8 µM | TGI [13]: > 25 µM | GI50 [14]: > 14.4 µM | TGI [14]: > 25 µM | GI50 [16]: 0.674 µM | TGI [16]: > 25 µM | GI50 [17]: 7.58 µM | TGI [17]: > 25 µM | GI50 [18]: > 25 µM | TGI [18]: > 25 µM | GI50 [19]: > 25 µM | TGI [19]: > 25 µM | GI50 [20]: 8.79 µM | TGI [20]: > 25 µM | GI50 [21]: 17.1 µM | TGI [21]: > 25 µM | GI50 [22]: > 25 µM | TGI [22]: > 25 µM | GI50 [23]: > 25 µM | TGI [23]: > 25 µM | GI50 [24]: 5.19 µM | TGI [24]: > 25 µM | GI50 [25]: > 25 µM | TGI [25]: > 25 µM | GI50 [26]: 20.1 µM | TGI [26]: > 25 µM | GI50 [27]: 12.3 µM | TGI [27]: > 25 µM | GI50 [57]: 0.912 µM | TGI [57]: > 25 µM | GI50 [28]: > 25 µM | TGI [28]: > 25 µM | GI50 [29]: 13.7 µM | TGI [29]: > 25 µM | GI50 [30]: 7.66 µM | TGI [30]: > 25 µM | GI50 [31]: > 25 µM | TGI [31]: > 25 µM | GI50 [32]: 7.13 µM | TGI [32]: > 25 µM | GI50 [33]: > 25 µM | TGI [33]: > 25 µM | GI50 [34]: 11.7 µM | TGI [34]: > 25 µM | GI50 [35]: 6.76 µM | TGI [35]: > 25 µM | GI50 [36]: > 19.3 µM | TGI [36]: > 25 µM | GI50 [37]: > 23.2 µM | TGI [37]: > 25 µM | GI50 [38]: 1.76 µM | TGI [38]: 11.3 µM | GI50 [39]: 5.26 µM | TGI [39]: > 25 µM | GI50 [40]: 16 µM | TGI [40]: > 25 µM | GI50 [41]: 2.57 µM | TGI [41]: > 23.6 µM | GI50 [58]: > 25 µM | TGI [58]: > 25 µM | GI50 [42]: 11.4 µM | TGI [42]: > 25 µM | GI50 [43]: 9.25 µM | TGI [43]: > 25 µM | GI50 [44]: > 25 µM | TGI [44]: > 25 µM | GI50 [45]: 7.61 µM | TGI [45]: > 25 µM | GI50 [46]: > 25 µM | TGI [46]: > 25 µM | GI50 [47]: 0.291 µM | TGI [47]: > 25 µM | GI50 [48]: 2.67 µM | TGI [48]: > 25 µM | GI50 [49]: 7.1 µM | TGI [49]: > 25 µM | GI50 [50]: 8.48 µM | TGI [50]: > 25 µM | GI50 [51]: 0.385 µM | TGI [51]: > 25 µM | GI50 [52]: 8.94 µM | TGI [52]: > 25 µM | GI50 [53]: > 25 µM | TGI [53]: > 25 µM | GI50 [54]: > 25 µM | TGI [54]: > 25 µM | GI50 [55]: 0.442 µM | TGI [55]: > 25 µM
